One data set deals with artemin mRNA. The data set is described as follows: Artemin mRNA expression in HaCaT cells contacted with FICZ, quantitative PCR. The format is cell-based, human. Particulars: 24 hours; for expression level of artemin mRNA compared to cells without FICZ: no Fraglide-1. The procedure: First, HaCaT cells (CLI; Catalogue No.: 300493) were suspended in a DMEM medium at the density of 1×10^5 cell/mL, and 100 μL of the thus obtained suspension was added to each well of white 96 well plates (Thermo Fisher Scientific, MA, U.S.A.; Catalogue No.: 136102) so that the number of the cells in each well was 10,000 cells/well. In accordance with a conventional method, the cells were incubated at 37° C. for 24 hours in the presence of 5% CO2. Thereafter, the DMEM medium was removed, and 100 μL of a new DMEM medium containing FICZ at a predetermined concentration (i.e., 5 nM, 50 nM, 500 nM, and 5,000 nM) was added, followed by further incubation for 24 hours at 37° C. and 5% CO2. Meanwhile, negative controls were prepared by adding 100 μL of a DMEM medium containing no FICZ instead of the DMEM medium containing FICZ, which were also incubated for 24 hours at 37° C. and 5% CO2.
After the above-described incubation for 24 hours, total RNA was extracted and cDNA was prepared using a PCR kit “SuperPrep II Cell Lysis & RT Kit for qPCR” (Catalogue No.: SCQ-401) manufactured by Toyobo Co., Ltd. (Osaka, Japan) in accordance with a method described in the manual attached to the kit. Briefly, after the above-described incubation for 24 hours, cell culture medium was removed from each well and the cells were washed with PBS (Phosphate-buffered saline). Thereafter, each well was added with 10 μL of a lysis reagent, which was prepared by mixing 58.7 μL of “Lysis solution”, 0.3 μL of “gDNA Remover” and 1 μL of “RNase Inhibitor” attached to the above PCR kit. The cell culture plate was shaken for about 30 seconds, and allowed to stand at room temperature for 5 minutes, to obtain a cell lysate containing total RNA that can be used as a template for reverse transcription reaction. Herein, “Lysis Solution” was a cell lysis agent to lyse cells; “gDNA remover” was a reagent containing DNase I that degrades genome DNA; and “RNase Inhibitor” was a reagent to inhibit degradation of RNA by cellular components such as RNase, etc.
Next, cDNA was synthesized from the extracted RNA by reverse transcription. Firstly, a master mix for reverse transcription reaction was prepared by mixing 8 μL of “5×RT Master Mix” and 24 μL of “Nuclease-free water”, which were attached to the above PCR kit “SuperPrep II Cell Lysis & RT Kit for qPCR” manufactured by Toyobo Co., Ltd. (Osaka, Japan). Preparation of the master mix for reverse transcription reaction was carried out on ice. In a PCR tube, 32 μL of the obtained master mix was dispensed and then 8 μL of the above cell lysate present in each well was added to make a total volume 40 μL, which was used for the following reverse transcription reaction. The reverse transcription reaction was carried out under the conditions of 37° C. for 15 mins, 50° C. for 5 mins, and 98° C. for 5 mins. The thus obtained cDNA solution was added with 80 μL of sterile water and then frozen at −20° C. for storage.
Quantitative PCR was carried out by using THUNDERBIRD Next SYBR qPCR Mix (Toyobo Co., Ltd., Osaka, Japan; Catalogue No. QPX-201) and StepOne Real-Time PCR System (Thermo Fisher Scientific, MA, USA). […] The reaction solution was used for quantitative PCR. Based on Ct (cycle threshold) value obtained by quantitative PCR, an amount of mRNA of each target gene was obtained. […]

Data set [1] relates to human liver cancer-derived cell line HepG2 cells. Particulars: cited from earlier work.
The subject of the next data set is HaCaT cells. The data set is described as follows: Safety evaluation: cell viability of HaCaT cells by WST-1 method. Particulars: 24 hours. Format: cell-based, human. Here is the method: The safety of Fraglide-1 was examined by a viable cell counting method using a water-soluble tetrazolium salt (WST-1). Specifically, HaCaT cells were suspended in DMEM medium at the concentration of 1×10^5 cells/mL. The obtained cell suspension was seeded in a white 96-well plate (ThermoFisher Scientific; Catalogue No. 136102) in an amount of 100 μL per well so that the number of cells per well was 10,000 cells/well. After 24 hours incubation at 37° C. and 5% CO2 in accordance with a conventional method, DMEM medium was removed and then either 100 μL of DMEM medium containing Fraglide-1 at a predetermined concentration or, as a control, 100 μL of DMEM medium not containing Fraglide-1 was added, followed by further incubation for 24 hours at 37° C. and 5% CO2. After the incubation for 24 hours, the number of viable cells was measured by using a premix reagent containing WST-1 (“Premix WST-1 Cell Proliferation Assay System”, Catalogue No. MK400, Takara Bio Inc., Shiga, Japan) in accordance with the procedure described in Experiment 1-2. The results shown in FIG. 16 are the mean of values obtained from three independent experiments, and the error bars represent standard error (SE).
A general note: Tetrazolium assays rely on reduction of a dye to a coloured formazan, in cell work by metabolically active cells.

Marks after values point to notes of the source that are not given here.

As for 6-formylindolo[3,2-b] carbazole [FICZ], the “expression level of artemin mRNA compared to cells without FICZ” value was “about 3.0 fold” in the data set on artemin mRNA (HaCaT cells, 500 nM FICZ) and ~3.7 fold in the data set on artemin mRNA (HaCaT cells, 5,000 nM FICZ). Also, the “concentration necessary to observe a significant increase in the expression level of artemin mRNA” value in the data set with artemin mRNA (HaCaT cells) was “at least 500 nM”. Further, in the data set with artemin mRNA (HaCaT cells, FICZ 50 nM or lower), the “change in expression level of artemin mRNA” value is reported as “no change was observed”. Further, the “expression level of artemin mRNA, dependence on concentration” value with artemin mRNA (HaCaT cells, FICZ 5-5,000 nM) is on record as “increased along with the concentration of FICZ”. Further, the “Literature Value Maximum Effective concentration Max. Induction” value in data set [1] is reported as 1** μM.
For the molecule `O=C1C=C(c2ccccc2)C(O)O1` (centres unmarked) [Fraglide-1, 5-hydroxy-4-phenyl-2(5H)butenolide], the cell viability result in the data set with HaCaT cells (500 μM, HaCaT cells) is on record as “more than 50%”. In the data set with HaCaT cells (read-out: LC50 (Median Lethal Concentration) against HaCaT cells), the CC50 is > 500 µM.
